pKi: −log10 of the molar value.
Each compound was assayed against T1, GHS-R (Homo sapiens, UniProt Q92847) (assay: GHS-R competition binding assay (Ki of GHS-R antagonizing compounds)).
T1 construct: expressed in transfected cells; host or cells: COS-7 cells
T1 sequence (Q92847 whole entry, species assumed): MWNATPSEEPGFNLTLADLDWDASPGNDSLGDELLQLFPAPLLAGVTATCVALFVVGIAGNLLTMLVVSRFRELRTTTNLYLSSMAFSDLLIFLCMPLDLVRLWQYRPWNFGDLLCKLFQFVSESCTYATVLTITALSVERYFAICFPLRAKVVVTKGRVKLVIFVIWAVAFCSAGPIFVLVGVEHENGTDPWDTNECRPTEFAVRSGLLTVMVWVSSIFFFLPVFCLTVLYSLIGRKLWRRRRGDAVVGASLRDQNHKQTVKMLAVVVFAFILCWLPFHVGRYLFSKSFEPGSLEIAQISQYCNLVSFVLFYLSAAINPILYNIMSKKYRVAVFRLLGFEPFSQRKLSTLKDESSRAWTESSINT
Experimental: One exemplary binding assay is as follows: GHS-R expressing COS-7 cells cultured at a density of 1×10^5 cells per well so that binding is assayed in the range of about 5-8 % binding of the radioactive ligand. For example, the cells can express an endogenous nucleic acid encoding GHS-R or an exogenous nucleic acid encoding GHS-R. Cells transfected with an exogenous nucleic acid encoding GHS-R can be used, e.g., two days, after transfection. Competition binding experiments are performed for 3 hours at 4° C. using 25 pM of ^125I-ghrelin in 0.5 ml of 50 mM HEPES buffer, pH 7.4, supplemented with 1 mM CaCl2, 5 mM MgCl2, and 0.1% (w/v) bovine serum albumin, 40 mg/ml bacitracin. Non-specific binding can be determined as the binding in the presence of […] of unlabeled ghrelin. Cells are washed twice in 0.5 ml of ice-cold buffer and then lysed with 0.5-1 ml of lysis buffer (8 M Urea, 2% NP40 in 3 M acetic acid). After washing and lysis, the bound radioactivity is counted. Assays can be run in duplicate or triplicate, e.g., to provide statistical power.
Values of the dissociation and inhibition constants (Kd and Ki) can be estimated from competition binding experiments using the equation: Kd=IC50-L and Ki=IC50/(1+L/Kd), where L is the concentration of radioactive ligand. Bmax values can be estimated from competition binding experiments using the equation Bmax=B0 IC50/[ligand], where B0 is the specifically bound radioligand.
For `CCN(CC)CCCS(=O)(=O)N[C@H](CCc1ccccc1)C(=O)NCc1ccc(-c2ccccc2CNC(=O)OC(C)(C)C)cc1` [Compound 182, (R)-(4′-{[2-(3-Diethylamino-propane-1-sulfonylamino)-4-phenyl-butyrylamino]-methyl}-biphenyl-2-ylmethyl)-carbamic acid tert-butyl ester], the pKi was 6.00 to 7.00. In the case of `CCN(CC)CCCS(=O)(=O)N[C@H](CCc1ccccc1)C(=O)c1ccc(-c2ccccc2C(=O)O)cc1` [Compound 183, (R)-4′-(2-(3-(diethylamino)propylsulfonamido)-4-phenylbutanoyl)biphenyl-2-carboxylic acid], the pKi was 6.00 to 7.00. `CCOC(=O)c1ccccc1-c1ccc(C(=O)[C@@H](CCc2ccccc2)NS(=O)(=O)CCCN(CC)CC)cc1` [Compound 184, (R)-ethyl 4′-(2-(3-(diethylamino)propylsulfonamido)-4-phenylbutanoyl)biphenyl-2-carboxylate] showed a pKi of less than 6.00. Work on `CCN(CC)CCCS(=O)(=O)N[C@H](CCc1ccccc1)C(=O)c1ccc(-c2ccccc2CCNC(=O)NC)cc1` [Compound 185, (R)-3-(diethylamino)-N-(1-(2′-(2-(3-methylureido)ethyl)biphenyl-4-yl)-1-oxo-4-phenylbutan-2-yl)propane-1-sulfonamide] yielded a pKi greater than 7.00. `CCN(CC)CCCS(=O)(=O)N[C@H](CCc1ccccc1)C(=O)c1ccc(-c2ccccc2C(=O)NC)cc1` [Compound 186, (R)-4′-(2-(3-(diethylamino)propylsulfonamido)-4-phenylbutanoyl)-N-methylbiphenyl-2-carboxamide] showed a pKi of 6.00 to 7.00. In the case of `CCN(CC)CCCS(=O)(=O)N[C@H](CCc1ccccc1)C(=O)NCc1ccc(-c2ccccc2CNC(=O)NC)cc1` [Compound 187, (R)-2-(3-(diethylamino)propylsulfonamido)-N-((2′-((3-methylureido)methyl)biphenyl-4-yl)methyl)-4-phenylbutanamide], the pKi was 6.00 to 7.00. With `CCN(CC)CCCS(=O)(=O)N[C@H](CCc1ccccc1)C(=O)NCc1ccc(-c2ccccc2CNC(=O)NCCO)cc1` [Compound 188, (R)-2-(3-(diethylamino)propylsulfonamido)-N-((2′-((3-(2-hydroxyethyl)ureido)methyl)biphenyl-4-yl)methyl)-4-phenylbutanamide] the pKi was greater than 7.00. In the case of `CCN(CC)CCCS(=O)(=O)N[C@H](CCc1ccccc1)C(=O)NCc1ccc(-c2ccccc2C(N)=O)cc1` [Compound 189, (R)-4′-{[2-(3-Diethylamino-propane-1-sulfonylamino)-4-phenyl-butyrylamino]-methyl}-biphenyl-2-carboxylic acid amide], the pKi was greater than 7.00. Compound `CCN(CC)CCCS(=O)(=O)N[C@H](CCc1ccccc1)C(=O)c1ccc(-c2ccccc2CNC(=O)OC(C)(C)C)cc1` [Compound 190, (R)-tert-butyl (4′-(2-(3-(diethylamino)propylsulfonamido)-4-phenylbutanoyl)biphenyl-2-yl)methylcarbamate] has a pKi of 6.00 to 7.00. In the case of `CCN(CC)CCCS(=O)(=O)N[C@H](CCc1ccccc1)C(=O)c1ccc(-c2ccccc2CN)cc1` [Compound 191, (R)-N-(1-(2′-(aminomethyl)biphenyl-4-yl)-1-oxo-4-phenylbutan-2-yl)-3-(diethylamino)propane-1-sulfonamide], the pKi was 6.00 to 7.00. Compound `CCN(CC)CCCS(=O)(=O)N[C@H](CCc1ccccc1)C(=O)c1ccc(-c2ccccc2CNC(C)=O)cc1` [Compound 192, (R)-N-((4′-(2-(3-(diethylamino)propylsulfonamido)-4-phenylbutanoyl)biphenyl-2-yl)methyl)acetamide] has a pKi greater than 7.00. For `CCNC(=O)NCc1ccccc1-c1ccc(CNC(=O)[C@@H](CCc2ccccc2)NS(=O)(=O)CCCN(CC)CC)cc1` [Compound 193, (R)-2-(3-(diethylamino)propylsulfonamido)-N-((2′-((3-ethylureido)methyl)biphenyl-4-yl)methyl)-4-phenylbutanamide], the pKi was greater than 7.00. With `CCN(CC)CCS(=O)(=O)N[C@H](CCc1ccccc1)C(=O)c1ccc(-c2ccccc2CNC(=O)OC(C)(C)C)cc1` [Compound 194, (R)-tert-butyl (4′-(2-(2-(diethylamino)ethylsulfonamido)-4-phenylbutanoyl)biphenyl-2-yl)methylcarbamate] the pKi was 6.00 to 7.00. `C=C(C)C(=O)OCCNC(=O)NCc1ccccc1-c1ccc(C(=O)[C@@H](CCc2ccccc2)NS(=O)(=O)CCCN(CC)CC)cc1` [Compound 195, (R)-2-(3-((4′-(2-(3-(diethylamino)propylsulfonamido)-4-phenylbutanoyl)biphenyl-2-yl)methyl)ureido)ethyl methacrylate] showed a pKi greater than 7.00. `CCN(CC)CCCS(=O)(=O)N[C@H](CCc1ccccc1)C(=O)c1ccc(-c2ccccc2CNC(=O)NC)cc1` [Compound 196, (R)-3-(diethylamino)-N-(1-(2′-((3-methylureido)methyl)biphenyl-4-yl)-1-oxo-4-phenylbutan-2-yl)propane-1-sulfonamide] showed a pKi greater than 7.00. Compound `CCNC(=O)NCc1ccccc1-c1ccc(C(=O)[C@@H](CCc2ccccc2)NS(=O)(=O)CCCN(CC)CC)cc1` [Compound 197, (R)-3-(diethylamino)-N-(1-(2′-((3-ethylureido)methyl)biphenyl-4-yl)-1-oxo-4-phenylbutan-2-yl)propane-1-sulfonamide] has a pKi greater than 7.00. In the case of `CCN(CC)CCCS(=O)(=O)N[C@H](CCc1ccccc1)C(=O)c1ccc(-c2ccccc2CNC(=O)NCCO)cc1` [Compound 198, (R)-3-(diethylamino)-N-(1-(2′-((3-(2-hydroxyethyl)ureido)methyl)biphenyl-4-yl)-1-oxo-4-phenylbutan-2-yl)propane-1-sulfonamide], the pKi was greater than 7.00. `CCN(CC)CCS(=O)(=O)N[C@@H](COCc1ccccc1)C(=O)N1CCC2(CC1)CN(S(C)(=O)=O)c1ccccc12` [Compound 199, (S)-N-(3-(benzyloxy)-1-(1-(methylsulfonyl)spiro[indoline-3,4′-piperidine]-1′-yl)-1-oxopropan-2-yl)-2-(diethylamino)ethanesulfonamide] was tested, and the pKi was greater than 7.00. With `CCN(CC)CCCS(=O)(=O)N[C@H](CCc1ccccc1)C(=O)NCc1ccc(-c2ccccc2NC(=O)NC)cc1` [Compound 200, (R)-2-(3-(diethylamino)propylsulfonamido)-N-((2′-(3-methylureido)biphenyl-4-yl)methyl)-4-phenylbutanamide] the pKi was 6.00 to 7.00. In the case of `CCN(CC)CCS(=O)(=O)N[C@H](CCc1ccccc1)C(=O)c1ccc(-c2ccccc2CNC(=O)NCCO)cc1` [Compound 201, (R)-2-(diethylamino)-N-(1-(2′-((3-(2-hydroxyethyl)ureido)methyl)biphenyl-4-yl)-1-oxo-4-phenylbutan-2-yl)ethanesulfonamide], the pKi was greater than 7.00. For `C=C(C)C(=O)OCCNC(=O)NCc1ccccc1-c1ccc(C(=O)[C@@H](CCc2ccccc2)NS(=O)(=O)CCN(CC)CC)cc1` [Compound 202, (R)-2-(3-((4′-(2-(2-(diethylamino)ethylsulfonamido)-4-phenylbutanoyl)biphenyl-2-yl)methyl)ureido)ethyl methacrylate], the pKi was 6.00 to 7.00. Compound `CCN(CC)CCS(=O)(=O)N[C@H](CCc1ccccc1)C(=O)c1ccc(-c2ccccc2CN)cc1` [Compound 203, (R)-N-(1-(2′-(aminomethyl)biphenyl-4-yl)-1-oxo-4-phenylbutan-2-yl)-2-(diethylamino)ethanesulfonamide] has a pKi of 6.00 to 7.00. `CCN(CC)CCS(=O)(=O)N[C@H](CCc1ccccc1)C(=O)c1ccc(-c2ccccc2CNC(C)=O)cc1` [Compound 204, (R)-N-((4′-(2-(2-(diethylamino)ethylsulfonamido)-4-phenylbutanoyl)biphenyl-2-yl)methyl)acetamide] was tested, and the pKi was greater than 7.00. For `CCNC(=O)NCc1ccccc1-c1ccc(C(=O)[C@@H](CCc2ccccc2)NS(=O)(=O)CCN(CC)CC)cc1` [Compound 205, (R)-2-(diethylamino)-N-(1-(2′-((3-ethylureido)methyl)biphenyl-4-yl)-1-oxo-4-phenylbutan-2-yl)ethanesulfonamide], the pKi was greater than 7.00. In the case of `CCN(CC)CCCS(=O)(=O)N[C@H](CCc1ccccc1)C(=O)NCc1ccc(-c2ccccc2CCNC(=O)NC)cc1` [Compound 206, (R)-2-(3-(diethylamino)propylsulfonamido)-N-((2′-(2-(3-methylureido)ethyl)biphenyl-4-yl)methyl)-4-phenylbutanamide], the pKi was greater than 7.00. In the case of `CCN(CC)CCCS(=O)(=O)N[C@H](CCc1ccccc1)C(=O)NCc1ccc(-c2ccccc2CO)cc1` [Compound 207, (R)-2-(3-(diethylamino)propylsulfonamido)-N-((2′-(hydroxymethyl)biphenyl-4-yl)methyl)-4-phenylbutanamide], the pKi was greater than 7.00. Compound `CCN(CC)CCCS(=O)(=O)N[C@H](CCc1ccccc1)C(=O)NCc1ccc(-c2ccccc2COC(=O)NC)cc1` [Compound 208, (R)-Methyl-carbamic acid 4′-{[2-(3-diethylamino-propane-1-sulfonylamino)-4-phenyl-butyrylamino]-methyl}-biphenyl-2-ylmethyl ester] has a pKi greater than 7.00. `CCN(CC)CCS(=O)(=O)N[C@H](CCc1ccccc1)C(=O)c1ccc(-c2ccccc2CNC(=O)NC)cc1` [Compound 209, (R)-2-(diethylamino)-N-(1-(2′-((3-methylureido)methyl)biphenyl-4-yl)-1-oxo-4-phenylbutan-2-yl)ethanesulfonamide] was tested, and the pKi was greater than 7.00.
